Patent US11124508B2 (priority 2017, dated 2021)

| melting point | SMILES |
| --- | --- |
| 166 to 168 °C | Cc1c(Cl)ccc2c(C3=NC(C)(C)C(F)(F)c4ccccc43)cnn12 [X.001, 1-(6-chloro-7-methyl-pyrazolo[1,5-a]pyridin-3-yl)-4,4-difluoro-3,3-dimethyl-isoquinoline] |
| 159 to 161 °C | Cc1ccn2c(C3=NC(C)(C)C(F)(F)c4ccccc43)cnc2c1C [X.014, 1-(7,8-dimethylimidazo[1,2-a]pyridin-3-yl)-4,4-difluoro-3,3-dimethyl-isoquinoline] |
| 134 to 136 °C | Cc1cccc2c(C3=NC(C)(C)C(C)(C)c4c(F)cccc43)cnn12 [X.013, 5-fluoro-3,3,4,4-tetramethyl-1-(7-methylpyrazolo[1,5-a]pyridin-3-yl)isoquinoline] |
| 105 to 107 °C | Cc1ccc2c(C3=NC(C)(C)C(F)(F)c4ccccc43)cnn2c1 [X.005, 4,4-difluoro-3,3-dimethyl-1-(6-methylpyrazolo[1,5-a]pyridin-3-yl)isoquinoline] |
| 175 to 176 °C | Cc1ccc2c(C3=NC(C)(C)C(C)(C)c4c(F)cccc43)cnn2c1C [X.012, 1-(6,7-dimethylpyrazolo[1,5-a]pyridin-3-yl)-5-fluoro-3,3,4,4-tetramethyl-isoquinoline] |

Second part, the compound before the results:

| SMILES | melting point |
| --- | --- |
| Cc1cccn2c(C3=NC(C)(C)C(C)(C)c4c(F)cccc43)cnc12 [X.019, 5-fluoro-3,3,4,4-tetramethyl-1-(8-methylimidazo[1,2-a]pyridin-3-yl)isoquinoline] | 160 to 161 °C |
| CC1(C)N=C(c2cnn3cc(Cl)ccc23)c2ccccc2C1(F)F [X.003, 1-(6-chloropyrazolo[1,5-a]pyridin-3-yl)-4,4-difluoro-3,3-dimethyl-isoquinoline] | 113 to 118 °C |
| Cc1c(Br)ccc2c(C3=NC(C)(C)C(F)(F)c4ccccc43)cnn12 [X.007, 1-(6-bromo-7-methyl-pyrazolo[1,5-a]pyridin-3-yl)-4,4-difluoro-3,3-dimethyl-isoquinoline] | 180 to 182 °C |
| Cc1ccn2c(C3=NC(C)(C)C(C)(C)c4c(F)cccc43)cnc2c1C [X.016, 1-(7,8-dimethylimidazo[1,2-a]pyridin-3-yl)-5-fluoro-3,3,4,4-tetramethyl-isoquinoline] | 185 to 186 °C |
| CC1(C)N=C(c2cnn3cc(Br)ccc23)c2ccccc2C1(F)F [X.006, 1-(6-bromopyrazolo[1,5-a]pyridin-3-yl)-4,4-difluoro-3,3-dimethyl-isoquinoline] | 127 to 129 °C |
| Cc1ccc2c(C3=NC(C)(C)C(F)(F)c4ccccc43)cnn2c1C [X.011, 1-(6,7-dimethylpyrazolo[1,5-a]pyridin-3-yl)-4,4-difluoro-3,3-dimethyl-isoquinoline] | 160 to 161 °C |
